Assay results reported in patent US20130052162A1, “BOOSTING IMMUNE DEFENSE BY UPREGULATING CCAAT/ENHANCER BINDING PROTEIN EPSILON” (CEDARS-SINAI MEDICAL CENTER, priority 2010, published 2013).
Values joined by “and” are separate entries in the source; they are usually repeats but may differ in a detail not shown here. Identical values can stand only once. “Also recorded” adds a separate entry of the source.

Columns and labels:
CEBPE promoter region = experiment: ChIP: histone H3 acetylation at CEBPE promoter in BMMC; type: cell-based, mouse; details: WT BMMC, 1 mM NAM, 12 h, vs untreated
Experimental: ChIP assay kit (Upstate Biotechnology, Lake Placid, N.Y.) was used, and chromatin was prepared for IP as instructed by the manufacturer. The sonicated chromatin was immunoprecipitated with either 5 μg of anti-acetylated histone H3 antibody or normal rabbit IgG antibody as negative control (Upstate Biotechnology). Immunoprecipitated DNA was subsequently analyzed by PCR using primers specific for the CEBPE promoter region; input chromatin was analyzed for β-actin mRNA as a positive control. The optimal reaction conditions for PCR were determined for each primer pair. Primers were denatured at 95° C. for 1 min and annealed at 60° C. for 1 min, followed by elongation at 72° C. for 1 min; each product was amplified 35 cycles. PCR products were analyzed by 2.5% agarose/ethidium bromide gel electrophoresis. […] The primers used for ChIP analysis were: human CEBPE 5′-GCTTTGGCCAAGCCCAGGGA-3′ (forward) (SEQ ID NO: 9), 5′-TGCTGGGCTCCACCTACCCC-3′ (reverse) (SEQ ID NO: 10); human β-actin: 5′-CTCCTCGGGAGCCACACGCA-3′ (forward) (SEQ ID NO: 1), 5′-TAGGGGAGCTGGCTGGGTGG-3′ (reverse) (SEQ ID NO: 12); murine CEBPE: 5′-TGAGGCTGCAGCTTGCCTGG-3′ (forward) (SEQ ID NO: 13), 5′-ACCAAGCTACCCCTGGCCCT-3′ (reverse) (SEQ ID NO: 14), murine β-actin: 5′-ACCTGTTACTTTGGGAGTGGCAAGC-3′ (forward) (SEQ ID NO: 15), 5′-GTCGTCCCAGTTGCTAACAATGCC-3′ (reverse) (SEQ ID NO: 16).

S. aureus [1] = experiment: Human peripheral whole blood killing assay, S. aureus; type: cell-based
K. pneumoniae = experiment: Human peripheral whole blood killing assay, K. pneumoniae; type: cell-based; details: NAM-pretreated human blood, 3 h of infection
Experimental: (§1) This well described phagocytic survival assay has been previously reported^42. Bacteria was pelleted, washed twice, diluted to the specified inoculum in 25 μl PBS (without Ca^2+ and Mg^2+), and immediately mixed with 75 μl of freshly drawn human or murine peripheral whole blood in sterile heparinized 2 mL round-bottom Eppendorf tubes. When required, murine plasma was obtained by centrifugation of heparinized whole blood at 2000×g for 15 min at RT. Reactions (performed in minimum in triplicate) were incubated at 37° C. for 1-3 h on a rotary shaker, at which time ten-fold serial dilutions were plated on THA for enumeration of surviving CFU.
(§2) When required, freshly drawn human or murine peripheral blood was pretreated with NAM (˜0.1 mM or ˜10 mM) or PBS (without Ca^2+ and Mg^2+), prior to inoculation with bacteria.
(§3) Participants in the inventors' study included 15 healthy humans with a negative history of infection or antibiotic treatments in the prior 4 weeks. Peripheral blood was collected from individuals in a fasting condition. Polymorph-prep (Axis-Shield, Oslo, Norway) was used for the isolation of PMNs according to the manufacturer's protocol.

P. aeruginosa = experiment: Human peripheral whole blood killing assay, P. aeruginosa; type: cell-based; details: NAM-pretreated human blood
Experimental: as §1, §2, §3

S. aureus [2] = experiment: Murine systemic (i.p.) S. aureus infection; type: in vivo, mouse; details: 250 mg/kg i.p. daily from 24 h before infection, 48 h p.i.
Experimental: Following euthanization of mice on the specified day, infected skin lesion tissue was aseptically excised, and thoroughly homogenized and mixed in 1 mL of PBS as previously shown^43. Ten-fold serial dilutions of the homogenates were plated on THA for CFU determination. The spleen and both kidneys were aseptically removed from each animal and processed in the same way. When required, the appropriate homogenized suspensions (skin lesions) were centrifuged at 15,000 g for 10 min and supernatants stored at −80° C. for subsequent analysis by ELISA.
Mice were systemically infected by intraperitoneal (i.p.) injection of 1×10^7 CFU/mL S. aureus for 48 h. Following euthanasia, the spleen and both kidneys were removed for CFU determination.

[3] = Ex vivo hematological study (CBC) of human donor blood; type: cell-based; details: 1 mM NAM ex vivo
Experimental: Blood from human donors (no antibiotics within the prior 2 weeks, no immune-boosting supplements, and otherwise healthy) was collected in ETDA tubes. CBC was performed on each blood sample at time zero. Each blood sample was then treated ex vivo with NAM (1 mM) or PBS (control) for 24 h in 6-well non-treated plates at 37 C, 5% CO2 and 95%% humidity with gentle rocking. After 24 h of treatment, CBCs were performed on each blood sample. […] (Table 3)

[4] = t = 24 h, individual human donors #1-5

Structure (SMILES): NC(=O)c1cccnc1 [NAM, Nicotinamide]
- increase in histone acetylation at the CEBPE promoter (CEBPE promoter region): 3 fold
- CFU recovered, NAM- vs PBS-treated blood (S. aureus [1]; NAM 1 mM or 10 mM 24 h, 1 h and 3 h of infection): Significantly less CFU
- reduction of S. aureus survival in whole blood vs PBS (S. aureus [1]; NAM 1 mM or 10 mM 24 h pretreatment, 3 h p.i.): 2-3 log10
- K. pneumoniae CFU recovered / outcome, NAM- vs PBS-treated blood (K. pneumoniae): improved the outcome of infection; also recorded: Significantly less CFU
- P. aeruginosa CFU recovered / outcome, NAM- vs PBS-treated blood (P. aeruginosa): improved the outcome of infection; also recorded: enhances clearance
- bacterial CFU recovered from spleens and kidneys vs PBS (S. aureus [2]; C/EBPε−/− mice): no impact
- lower S. aureus CFU in spleens and kidneys vs PBS (S. aureus [2]; WT mice): approximately 2 logic
- CBCs, NAM- vs PBS-treated and untreated blood ([3]; 24 h): No differences in CBCs
- ABS MONOS [3, 4]: 0.6 1000/UL and 0.5 1000/UL and 0.2 1000/UL and 0.1 1000/UL (2×)
- ABS POLYS [3, 4]: 5.4 1000/UL and 2.9 1000/UL and 5.2 1000/UL and 4.2 1000/UL and 4.3 1000/UL
- MONOS [3, 4]: 7% and 9% and 4% and 2% (2×)
- POLYS [3, 4]: 61% and 51% and 76% and 63% and 70%
- WBC COUNT [3, 4]: 8.9 1000/UL and 5.6 1000/UL and 6.9 1000/UL and 6.7 1000/UL and 6.1 1000/UL
